According to BindingDB's records for doi:10.1016/j.ejmech.2018.02.025 (Chia Tai Tianqing Pharmaceutical Group, 2018):

Tests used:
[1] = Inhibition of NS5A in HCV genotype 1a infected in human HuH7 replicon cells assessed as reduction in viral replication after 3 days by luciferase reporter gene assay
[2] = Inhibition of NS5A in HCV genotype 1b infected in human HuH7 replicon cells assessed as reduction in viral replication after 3 days by luciferase reporter gene assay
[3] = Inhibition of NS5A in HCV genotype 6a infected in human HuH7 replicon cells expressing HCV genotype 1b chimeric replicon assessed as reduction in viral replication after 3 days by luciferase reporter gene assay
[4] = Inhibition of NS5A in HCV genotype 5a infected in human HuH7 replicon cells expressing HCV genotype 1b chimeric replicon assessed as reduction in viral replication after 3 days by luciferase reporter gene assay
[5] = Inhibition of NS5A in HCV genotype 3a infected in human HuH7 replicon cells expressing HCV genotype 1b chimeric replicon assessed as reduction in viral replication after 3 days by luciferase reporter gene assay
[6] = Inhibition of NS5A in HCV genotype 2a JFH-1 infected in human Huh7.5.1 cells assessed as reduction in viral replication after 3 days by luciferase reporter gene assay

| Structure (SMILES) | EC50 [1] | EC50 [2] | EC50 [3] | EC50 [4] | EC50 [5] | EC50 [6] |
| --- | --- | --- | --- | --- | --- | --- |
| CC[Si](CC)(CC)c1ccc(N2[C@@H](c3ccc(NC(=O)[C@@H]4CCCN4C(=O)[C@@H](NC(=O)OC)C(C)C)cc3)CC[C@H]2c2ccc(NC(=O)[C@@H]3CCCN3C(=O)[C@@H](NC(=O)OC)C(C)C)cc2)cc1 | > 500 pM | 7 pM |  |  |  |  |
| COC(=O)N[C@H](C(=O)N1CCC[C@H]1C(=O)Nc1ccc([C@@H]2CC[C@@H](c3ccc(NC(=O)[C@@H]4CCCN4C(=O)[C@@H](NC(=O)OC)C(C)C)cc3)N2c2ccc([Si](C)(C)C(C)(C)C)cc2)cc1)C(C)C | 11 pM | 3 pM | 925 pM | 1 pM | 12 pM | 1.1 pM |
| COC(=O)N[C@H](C(=O)N1CCC[C@H]1C(=O)Nc1ccc([C@H]2CC[C@H](c3ccc(NC(=O)[C@@H]4CCCN4C(=O)[C@@H](NC(=O)OC)C(C)C)cc3)N2c2ccc([Si](C)(C)C)cc2)cc1)C(C)C | 118 pM | 7 pM |  |  |  |  |
| COC(=O)N[C@H](C(=O)N1CCC[C@H]1C(=O)Nc1ccc([C@H]2CC[C@@H](c3ccc(NC(=O)[C@@H]4CCCN4C(=O)[C@@H](NC(=O)OC)C(C)C)cc3)N2c2ccc([Si](C)(C)C)cc2)cc1)C(C)C | > 500 pM | 8 pM |  |  |  |  |
| CC[Si](CC)(CC)c1ccc(N2[C@H](c3ccc(NC(=O)[C@@H]4CCCN4C(=O)[C@@H](NC(=O)OC)C(C)C)cc3)CC[C@H]2c2ccc(NC(=O)[C@@H]3CCCN3C(=O)[C@@H](NC(=O)OC)C(C)C)cc2)cc1 | 7 pM | 3 pM | 445 pM | 1 pM | 10 pM |  |
| COC(=O)N[C@H](C(=O)N1CCC[C@H]1C(=O)Nc1ccc([C@@H]2CC[C@@H](c3ccc(NC(=O)[C@@H]4CCCN4C(=O)[C@@H](NC(=O)OC)C(C)C)cc3)N2c2ccc(C(C)(C)C)cc2)cc1)C(C)C [CHEBI:85183] | 30 pM | 5 pM | 3390 pM | 4 pM | 86 pM | 2.6 pM |
| CC[Si](CC)(CC)c1ccc(N2[C@@H](c3ccc(NC(=O)[C@@H]4CCCN4C(=O)[C@@H](NC(=O)OC)C(C)C)cc3)CC[C@@H]2c2ccc(NC(=O)[C@@H]3CCCN3C(=O)[C@@H](NC(=O)OC)C(C)C)cc2)cc1 | 41 pM | 6 pM |  |  |  |  |
| COC(=O)N[C@H](C(=O)N1CCC[C@H]1C(=O)Nc1ccc([C@@H]2CC[C@@H](c3ccc(NC(=O)[C@@H]4CCCN4C(=O)[C@@H](NC(=O)OC)C(C)C)cc3)N2c2ccc([Si](C)(C)C)cc2)cc1)C(C)C | 14 pM | 4 pM | 1410 pM | 1 pM | 38 pM | 2.5 pM |
